Reference: ChEMBL document CHEMBL1133765, “QSAR model for drug human oral bioavailability” (J Med Chem, 2000)

Key:
physchem [1] = details: octanol/water
clinical [2] = details: human, in vivo, po
physchem [3] = test: physchem
[4] = octanol/water
clinical [5] = details: human, in vivo, po; remark: listed apart in the source
physchem [6] = details: octanol/water, pH 6.5

## CC(C)=CCN1CC[C@@]2(C)c3cc(O)ccc3C[C@@H]1[C@@H]2C
Physchem [1]; pH 6.5
  logD: 1.05
Clinical [2]
  bioavailability: 49%
Physchem [3]
  pKa: 8.8
[4]
  delta logD: -0.88

## COCCCC/C(=N\OCCN)c1ccc(C(F)(F)F)cc1 [FLUVOXAMINE]
Physchem [3]
  pKa: 9.5
Clinical [5]
  bioavailability: 79%

## CC(C)NCC(O)c1ccc(O)c(O)c1 (stereo not drawn) [ISOPROTERENOL]
Physchem [1]; pH 6.5, logD
  logD: -2.76
Clinical [2]; F
  bioavailability: 49%
Physchem [3]
  pKa: 8.7
[4]
  delta logD: -0.88

## CNS(=O)(=O)Cc1ccc2[nH]cc(CCN(C)C)c2c1
Physchem [1]; pH 6.5, logD
  logD: -2.07
Clinical [2]; F
  bioavailability: < 20%
Physchem [3]
  pKa: 9.4
[4]
  delta logD: -0.9

## CC(CCc1ccc(O)cc1)NCCc1ccc(O)c(O)c1 (stereo not drawn) [DOBUTAMINE]
Physchem [1]; pH 6.5, logD
  logD: -0.48
Clinical [2]; F
  bioavailability: < 20%
Physchem [3]
  pKa: 9.5
[4]
  delta logD: -0.9

## CN(C)CC(Oc1ccccc1)Oc1ccccc1 [MEDIFOXAMINE]
Physchem [1]; pH 6.5, logD
  logD: -0.43
Clinical [2]; F
  bioavailability: 49%
Physchem [3]
  pKa: 9.2
[4]
  delta logD: -0.89

## COc1cc(NC(C)CCCN)c2ncccc2c1 (stereo not drawn) [PRIMAQUINE]
Physchem [1]; pH 6.5, logD
  logD: -2.19
Clinical [2]; F
  bioavailability: 79%
Physchem [3]
  pKa: 10.3
[4]
  delta logD: -0.9

## COC(=O)C1=C(C)NC(C)=C(C(=O)OCCN(C)Cc2ccccc2)C1c1cccc([N+](=O)[O-])c1 (stereo not drawn) [NICARDIPINE]
Physchem [1]; pH 6.5, logD
  logD: 1.18
Clinical [2]; F
  bioavailability: 49%
Physchem [3]
  pKa: 7.6
[4]
  delta logD: -0.72

## CCNCC(O)c1cccc(O)c1 (stereo not drawn) [ETILEFRINE]
Physchem [1]; pH 6.5
  logD: -2.86
Clinical [2]
  bioavailability: 49%
Physchem [3]
  pKa: 9.8
[4]
  delta logD: -0.9

## CC(=O)S[C@@H]1CC2=CC(=O)CC[C@]2(C)[C@H]2CC[C@@]3(C)[C@@H](CC[C@@]34CCC(=O)O4)[C@H]12 [SPIRONOLACTONE]
Physchem [1]; pH 6.5, logD
  logD: 2.78
Clinical [2]; F
  bioavailability: 49%
[4]
  delta logD: 0

## CN1CCN2c3ncccc3Cc3ccccc3C2C1 (stereo not drawn) [MIRTAZAPINE]
Physchem [1]; pH 6.5, logD
  logD: 2.01
Clinical [2]; F
  bioavailability: 79%
Physchem [3]
  pKa: 7.1
[4]
  delta logD: -0.55

## Cc1ncsc1CCCl [CLOMETHIAZOLE]
Physchem [1]; pH 6.5
  logD: 2.12
Clinical [2]
  bioavailability: < 20%
[4]
  delta logD: 0

## CNCCCC1c2ccccc2C=Cc2ccccc21 [PROTRIPTYLINE]
Physchem [1]; pH 6.5, logD
  logD: 0.34
Clinical [2]; F
  bioavailability: > 80%
Physchem [3]
  pKa: 8.2
[4]
  delta logD: -0.84

## CN1CCN2c3ccccc3Cc3ccccc3C2C1 (stereo not drawn) [MIANSERIN]
Physchem [1]; pH 6.5, logD
  logD: 2.78
Clinical [2]; F
  bioavailability: 49%
[4]
  delta logD: -0.52

## CNCCC=C1c2ccccc2CCc2ccccc21 [NORTRIPTYLINE]
Physchem [1]; pH 6.5, logD
  logD: 1.08
Clinical [2]; F
  bioavailability: 79%
[4]
  delta logD: -0.9

## O=C(CCCN1CCC(O)(c2ccc(Cl)cc2)CC1)c1ccc(F)cc1 [HALOPERIDOL]
Physchem [1]; pH 6.5, logD
  logD: 1.42
Clinical [2]; F
  bioavailability: 79%
[4]
  delta logD: -0.86

## CCC1(c2ccccc2)C(=O)NCNC1=O [PRIMIDONE]
Physchem [1]; pH 6.5, logD
  logD: 0.91
Clinical [2]; F
  bioavailability: > 80%
[4]
  delta logD: 0

## CN/C(=N/CCSCc1nc[nH]c1C)NC#N [CIMETIDINE]
Physchem [6]
  logD: -0.08
Clinical [5]
  bioavailability: 79%

## NCCc1ccc(O)c(O)c1 [DOPAMINE]
Physchem [1]; pH 6.5, logD
  logD: -3.37
Clinical [2]; F
  bioavailability: < 20%
Physchem [3]
  pKa: 8.9
[4]
  delta logD: -0.9

## CO/C(O)=C1\C(C)=NC(C)=C(C(=O)OCC(C)C)C1c1ccccc1[N+](=O)[O-] (stereo not drawn)
Physchem [1]; pH 6.5, logD
  logD: 1.58
Clinical [2]; F
  bioavailability: < 20%
[4]
  delta logD: 0

## CNC[C@H](O)c1cccc(O)c1 [PHENYLEPHRINE]
Physchem [1]; pH 6.5, logD
  logD: -3.02
Clinical [2]; F
  bioavailability: 49%
Physchem [3]
  pKa: 9.8
[4]
  delta logD: -0.9

## O=C1NC(=O)C(c2ccccc2)(c2ccccc2)N1 [PHENYTOIN]
Physchem [1]; pH 6.5, logD
  logD: 2.47
Clinical [2]; F
  bioavailability: > 80%
Physchem [3]
  pKa: 8
[4]
  delta logD: 0.1

## CNC(=C[N+](=O)[O-])NCCSCc1csc(CN(C)C)n1 [NIZATIDINE]
Physchem [1]; pH 6.5, logD
  logD: -0.08
Clinical [2]; F
  bioavailability: > 80%
Physchem [3]
  pKa: 6.8
[4]
  delta logD: -0.38

## CN1CCN(C2=Nc3cc(Cl)ccc3Nc3ccccc32)CC1 [CLOZAPINE]
Physchem [1]; pH 6.5
  logD: 1.81
Clinical [2]
  bioavailability: 79%
[4]
  delta logD: -0.81

## C[C@H]1C[C@@H]2[C@H]([C@@H](O)C[C@@]3(C)[C@H]2CC[C@]3(O)C(=O)CO)[C@@]2(C)C=CC(=O)C=C12 [METHYLPREDNISOLONE]
Physchem [1]; pH 6.5, logD
  logD: 1.66
Clinical [2]; F
  bioavailability: > 80%
[4]
  delta logD: 0

## CNCCC[C@]12CC[C@H](c3ccccc31)c1ccccc12
Physchem [1]; pH 6.5, logD
  logD: 0.52
Clinical [2]; F
  bioavailability: 79%
Physchem [3]
  pKa: 10.5
[4]
  delta logD: -0.9

## CCOC(=O)c1ncn2c1CN(C)C(=O)c1cc(F)ccc1-2 [FLUMAZENIL]
Physchem [1]; pH 6.5
  logD: 1.01
Clinical [2]
  bioavailability: < 20%
Physchem [3]
  pKa: 6.2
[4]
  delta logD: -0.14

## O=c1[nH]cc(F)c(=O)[nH]1 [FLUOROURACIL]
Physchem [1]; pH 6.5
  logD: -0.89
Clinical [2]
  bioavailability: 49%
Physchem [3]
  pKa: 8
[4]
  delta logD: 0.1

## Nc1nc(N)c2nc(-c3ccccc3)c(N)nc2n1
Physchem [1]; pH 6.5, logD
  logD: 0.8
Clinical [2]; F
  bioavailability: 79%
Physchem [3]
  pKa: 6.2
[4]
  delta logD: -0.15
